Experimental data: a melting point compilation (Tetko et al.; mined from patent text by program, amines drawn as free bases though some values may be those of a salt)

Row | melting point | Structure (SMILES)
1 | 119 to 120 °C | C=C1CCN(c2ccc(Cl)cc2)C1=O
2 | 149 to 151 °C | O=CN1CCN(c2ccnc(Oc3ccccc3)n2)CC1
3 | 50 to 52 °C | CC(C)COC(=O)CCC1NCC(=O)N1 (configuration not stated)
4 | 122 to 125 °C | O=C(Nc1ccc(Oc2cncc(Cl)c2)nc1)c1ccccc1C(c1ccc(O)cc1)c1ccc(O)cc1
5 | 255 to 258 °C | Cc1ccc2c(c1)c(C)c1n2C(=O)C(Cc2nc[nH]c2C)CC1 (configuration not stated)
6 | 97 to 113 °C | Cc1cc(N(C)C)ccc1C1(N(c2ccc(N(C)C)cc2)c2ccc(N(C)C)cc2)OC(=O)c2ccccc21 (configuration not stated)
7 | 261 to 262 °C | CCCOc1ccccc1-c1nc2ncncc2c(=O)n1N
8 | 115 to 119 °C | CC(C)(C)c1cc(C(=S)OCc2ccccc2)cc(C(C)(C)C)c1O
9 | 135 to 140 °C | CCn1c2ccc(C=O)cc2c2ccc3ccccc3c21
10 | 226 to 228 °C | CN1CC(CO)CC2c3cccc4c3C(CN4)CC21 (configuration not stated)
11 | 106 to 112 °C | Cc1cc(F)ccc1-c1nc(NC(C)(C)CO)nc2c1ccc(=O)n2-c1ccccc1F
12 | 183 to 185 °C | O=C(O)COc1ccc2c(c1)-c1nc(S(=O)(=O)CC(c3ccccc3)c3ccccc3)sc1CC2
13 | 167 to 169 °C | CCCOc1ccccc1-c1cc(C)c(C(=O)OC)c(=O)[nH]1
14 | 148 to 150 °C | CC(=O)N1C(C(=O)NCCO[N+](=O)[O-])CSC1c1ccccc1C(=O)O (configuration not stated)
15 | 124 °C | CCn1cc(C2CCC(=O)CC2)c2cc(C#N)ccc21
16 | 125 to 130 °C | CC(C)(C)[S@](=O)N1CCC[C@H]1c1cccs1
17 | 222 to 225 °C | CS(=O)(=O)c1ccc(-c2cnn(-c3cccc(-c4ccc(F)cc4)c3)c(=O)c2-c2ccc(F)cc2)cc1
18 | 191 to 201 °C | CC1N(C(=O)c2ccc(C(F)(F)F)cc2)CC(n2cncn2)OC1(Cn1cncn1)c1ccc(Cl)cc1Cl (configuration not stated)
19 | 58 to 60 °C | CCNc1cncc(S(=O)(=O)N(CC)CC)c1
20 | 173 to 175 °C | COCc1c(-c2csc(C)n2)ncc2c1c1cc(OCc3ccccc3)ccc1n2S(=O)(=O)c1ccc(C)cc1
21 | 256 to 257 °C | O=c1[nH]c2cc(Cl)ccc2n1-c1cc(Cl)ccc1O
22 | 211 to 213 °C | Cc1nc2ccccc2cc1NC(=S)N1CCN(c2cc(F)cc(F)c2)CC1
23 | 172 to 173 °C | COc1ccc(NC(=O)CBr)c(C(=O)O)c1

Row | melting point | Structure (SMILES)
24 | 240 to 242 °C | Cc1[nH]c2ccc([N+](=O)[O-])cc2c1Cn1ccnc1
25 | 256 to 258 °C | CC1(C)C(=O)Nc2ccc(C3(C#N)C=CC=N3)cc21 (configuration not stated)
26 | 177 to 178 °C | CCOC(=O)Cc1ccc(NC(=O)/C=C/c2cnn(C)c2-c2ccc(F)cc2)cc1
27 | 243 to 245 °C | O=C(NC1CCCCC1)c1ccc(CCN2CC=C(c3c[nH]c(-c4ccc(F)cc4)c3-c3ccncc3)CC2)cc1
28 | 169 to 171 °C | O=c1ccc(-c2ccsc2)n[nH]1
29 | 79.2 to 79.7 °C | CCOc1ccc(-c2nc(CCC(=O)c3ncccc3OC)cs2)cc1OCC
30 | 90 to 91 °C | CC1CN(C)Cc2cc(-c3ccccc3)n(Cc3ccccc3)c21 (configuration not stated)
31 | 142 to 148 °C | c1c(NC2CCCC2)nc(NC2CCCC2)nc1N1CCNCC1
32 | 171 to 173 °C | Nc1nc(Cl)cc(NCC2(CO)CC(=O)C2)n1
33 | 211 °C | CC(=O)NC[C@H]1CN(c2ccc(N3C[C@H]4CN(C(=O)c5cc6ccccc6[nH]5)C[C@H]4C3)c(F)c2)C(=O)O1
34 | 192 to 193 °C | CS(=O)(=O)c1ccc(C(Cc2ccc(F)cc2)C(=O)Nc2cncc(Cl)n2)cc1 (configuration not stated)
35 | 162 to 164 °C | CC(C)(C)c1cc(C=C2SCN(C3CC3)C2=O)cc(C(C)(C)C)c1O
36 | 227 °C | CC(=O)OC1CSC(Oc2ccc(-c3cccnc3F)nc2Cl)C(OC(C)=O)C1OC(C)=O (configuration not stated)
37 | 107 to 110 °C | CC(C)c1cc(C(C)C)c(OS(=O)(=O)CC(=O)N(Cc2ccccc2)Cc2ccccc2)c(C(C)C)c1
38 | 77 to 79 °C | Cc1nnc(-c2nnc(SCCC(F)=C(F)F)o2)o1
39 | 220 to 221 °C | CSc1ncc(Cc2cnc3ccccc3c2)c(=O)[nH]1
40 | 151 to 153 °C | CNc1cc(C(C)=O)ccc1OCCCN1CCC(c2noc3cc(F)ccc23)CC1
41 | 47 to 48 °C | CCCc1c(OCCCCCBr)ccc2c1OCCC2=O
42 | 205 to 206 °C | COc1ccc(-c2nc(-c3ccc(OC)cc3)nc(-c3ccccc3O)n2)cc1
43 | 115 to 116 °C | COc1c(Cl)cc(NC(=O)OC(C)(C)C)cc1Cl
44 | 161 to 164 °C | CC(O)N(C)C(=O)c1cc(C(C)(C)C)c(O)c(C(C)(C)C)c1 (configuration not stated)
45 | 136 to 138 °C | CN[C@@H](CC(C)C)C(=O)N[C@@H](Cc1ccccc1)C(N)=O
46 | 106 to 107 °C | COC(=O)Cc1cc(OCc2ccc3ccccc3n2)ccc1Nc1ccccc1

Row | melting point | Structure (SMILES)
47 | 112 to 113 °C | CCCCCCCCCCCCCCOc1ccc(C(=O)O)cc1OCCCCCCCCCCCCCC
48 | 117 to 119 °C | O=c1cc(-c2ccncn2)nc2n1CCCCC2Br (racemic)
49 | 163 to 165 °C | O=c1c(CCCCc2ccccn2)cc2cccnc2n1-c1cccc([N+](=O)[O-])c1
50 | 95 to 96 °C | O=C1NCCc2ccccc2C1c1ccccc1 (configuration not stated)
51 | 187 to 190 °C | O=C(O)C1Cc2c(ncn2Cc2ccccc2O)CN1C(=O)C(c1ccccc1)c1ccccc1 (configuration not stated)
52 | 254 to 255 °C | Cc1[nH]c(C(=O)NCC2CCCCC2)c(C)c1-c1nc2ccc(C(=O)c3ccccc3)cc2[nH]1
53 | 78 to 79 °C | CC(=O)c1cc(C)n(CCO)n1
54 | 168 to 170 °C | CN(C(=O)C(F)(F)F)c1cnc(-c2cncc(F)c2)s1
55 | 198 to 200 °C | CC(C)(C)CC(=O)c1ccc2c(c1)C=C(C(=O)O)C(C(F)(F)F)O2 (configuration not stated)
56 | 87 °C | CCOc1ccccc1OCC(O)CN (single isomer, unassigned; (-))
57 | 98 to 99 °C | O=[N+]([O-])c1cc(S(=O)c2ccc(-c3ccccc3)cc2)ccc1Cl (configuration not stated)
58 | 187 to 189 °C | CCC1=Nc2nc(C3CCCC3)[nH]c2C2=N[C@H](Cc3ccccc3)CN12
59 | 159 to 161 °C | Cc1noc(-c2cccc(CN3CCN(c4ccc(NC(=O)OC(C)(C)C)cc4)CC3)c2)n1
60 | 202 °C | NS(=O)(=O)c1ccc(/C(=C2\CCOC2=O)c2ccc(F)cc2)cc1
61 | 48 to 50 °C | CCCCCCCCCCOc1cc(N)cc(OCCCCCCCCCC)c1
62 | 129 to 131 °C | CCCC(Cl)COC(=O)c1ccc(-c2ccc(-c3ccc(C(=O)OCC(Cl)CCC)cc3)cc2)cc1 (configuration not stated)
63 | 141 to 142 °C | CCCc1cc(Cl)c2oc(C(=O)c3ccccc3)c(C)c2c1OC(=O)c1ccccc1
64 | 114 to 117 °C | COC(=O)CCc1cc(C(=O)c2ccc(OC)cc2)c(OC)cc1OC
65 | 86 to 87 °C | CC(C)(C)OC(=O)NCCNC(=O)c1ncccc1Oc1ccccc1Cl
66 | 149 to 150 °C | COC(=O)c1cc(C(=O)N2COCC2(C)C)c2cc(Cc3ccc(F)cc3)cnc2c1O
67 | 109 to 110 °C | CCOc1cc(Cn2cc(CCC(=O)O)c(-c3ccccc3)c2)cc(OCc2csc(-c3ccccc3)n2)c1
68 | 234 to 236 °C | C=C1CC2C(CCC3(C)C2CCC3(OC(C)=O)C(C)=O)C2(C)CCC(=O)C=C12 (configuration not stated)
69 | 60 to 61 °C | CNc1cccc(OC)c1N

Row | melting point | Structure (SMILES)
70 | 208 °C | Cc1oc2ccccc2c(=O)c1NC(=O)C(=O)O
71 | 212 to 213 °C | COc1cc(-c2nc3cc(OC)cc(OC)c3c(=O)[nH]2)cc(N2CCN(C(C)C)CC2)c1
72 | 113 to 114 °C | CN[C@@H]1Cc2ccccc2[C@H]1Nc1ccccc1CO (relative stereo)
73 | 249 to 250 °C | COc1cc(OC)c2c(=O)[nH]c(-c3ccc(O)c(CCO)c3)nc2c1
74 | 214 to 216 °C | O=C(Nc1ccc(S(=O)(=O)c2ccccc2)cc1)C1(O)CCCC1
75 | 246 °C | Cn1cncc1C(O)(c1ccc2c(c1)c(-c1cccc(Cl)c1)cc(=O)n2C)c1nccs1 (configuration not stated)
76 | 162 to 163 °C | Cc1ccc(-c2ccc3c(c2)C=C(C(=O)Nc2ccc(CN(C)C4CCOCC4)cc2)CCO3)cc1
77 | 63 °C | O=Cc1ccc(C(F)(F)F)cc1[N+](=O)[O-]
78 | 244 to 247 °C | Cc1c(F)c(F)c(F)c2c1c(=O)c(C(=O)O)cn2CCO
79 | 132 to 136 °C | CC(C)(C)c1ccc(-c2ccc(-c3ccc(Br)s3)s2)cc1
80 | 133 to 135 °C | CC(C)(C)c1nc(-c2ncn3c2COc2cc(F)ccc2-3)no1
81 | 157 °C | Cc1cc(-c2cccc([N+](=O)[O-])c2)c2ccccc2n1
82 | 59 to 61 °C | CCc1cc(OC)c(O)c([N+](=O)[O-])c1
83 | 113 to 116 °C | COc1ccc2c(c1)CN(C#N)CC2c1cc(OC)c(OC)c(OC)c1 (configuration not stated)
84 | > 400 °C | Cc1nc2ccc3c(c2nc1C)C(=O)c1ccccc1C3=O
85 | 153 to 156 °C | Nc1ccccc1Sc1ccccc1-c1nnn[nH]1
86 | 116 to 119 °C | CCc1nc2c(cnn2CC)c(NC2CCOCC2)c1CNC(=O)c1cccc(C(=O)NCc2ccc(Cl)c(-c3cccc(CN4CCCNCC4)c3)c2)c1
87 | 214 to 215 °C | N#Cc1ccc(N(Cc2ccc(OS(N)(=O)=O)c(Cl)c2)n2cnnc2)cc1-c1cc2ccccc2o1
88 | 94 to 95 °C | CCCNC(=O)Nc1ccc(C(=O)OC)c(NC(=O)NC(C)C)c1
89 | 180 °C | C=CCCC(C)(NC(c1ccccc1)c1ccccc1)P(O)O (configuration not stated)
90 | 170 to 172 °C | CC1(C)CN=C(NN=C(C=Cc2ccc(OC(F)(F)F)cc2)C=Cc2ccc(OC(F)(F)F)cc2)NC1
91 | 132 to 134 °C | C[C@H](Oc1cc(-c2c3ccccc3c(Br)c3sc4ccccc4c23)ccc1Br)C(=O)O

Row | Structure (SMILES) | melting point
92 | CN(C)c1ccnc(N(C)C2CCN(CCCC(c3ccc(F)cc3)c3ccc(F)cc3)CC2)n1 | 106 °C
93 | CN(Cc1ccc(COOC(=O)NC(Cc2ccccc2)C(=O)O)cc1)c1ccccc1 (configuration not stated) | 69.6 to 70.1 °C
94 | CC12CCC3C(CCC4=C(N)C(=O)CCC43C)C1CCC2=O (configuration not stated) | 186 to 188 °C
95 | CC(=O)c1ccc(N2CCN(C)CC2)cc1 | 97 to 99 °C
96 | CC(=NO)c1c(C#N)nn(-c2c(Cl)cc(C(F)(F)F)cc2Cl)c1N | 105 to 110 °C
97 | Brc1cccc2nc(N3CCNCC3)ccc12 | 94 to 96 °C
